# Assay results taken from patent publication US9260461B2, “Water-soluble derivatives and prodrugs of acacetin and methods of making and using thereof” (Versitech Limited, priority 2014, dated 2016).
# Experiments:
# [1] = target: T1, Kv1.5 current (hKV1.5 gene expressed in HEK 293 cells) (Homo sapiens, UniProt P22460); assay: Whole-cell patch-clamp, Kv1.5 current in HEK 293 cells; assay type: cell-based; settings: 30 μM, representative cells
# T1 construct: expressed in transfected cells
# Procedure: HEK 293 cell line stably expressing the hKV1.5 gene (Wu et al., 2011) or hKv4.3 gene (Wu et al., 2013) was maintained in Dulbecco's modified eagle's medium (DMEM, Invitrogen, Hong Kong) supplemented with 10% fetal bovine serum and 400 μg/mL G418 in a 5% CO2 incubator. Cells were seeded on a glass cover slip for electrophysiology recording.
# (§1) Ionic currents in HEK 293 cell lines and rat atrial myocytes were measured by the standard whole-cell patch-clamp technique using a standard pipette and bath solution with an EPC-10 amplifier and Pulse software (HEKA, Lambrecht, Germany). A 3M KCl-agar salt bridge was used as the reference electrode. The current signal was sampled at 5 kHz, recorded and stored in the hard disk of an IBM compatible computer. All experiments were conducted at room temperature (22-23° C.).
# However, Kv1.5 current (FIG. 3D), Kv4.3 current (FIG. 3E) or IKACh (FIG. 3F) was inhibited by 10 μM acacetin in representative cells consistent with experimental reports.
# [2] = In vivo conversion of prodrugs to acacetin, HPLC of blood samples from anesthetized rats; design: species or system SD rats
# Procedure: Male SD rats (250-300 g) was anesthetized with phenobarbital (30 mg/kg, i.p.), and the jugular vein and femoral vein were cannulated for drug administration and blood sample collection. Tracheal cannulation was also performed for ventilation. Drug (20 mg/kg) was administrated for 30-60 min, and blood samples (˜0.2 mL) were collected before and at 5, 15, 30, 60, 90, and 120 min after drug administration using ascorbic acid and EDTA-preserved microcentrifuge tubes (1.5 mL) for HPLC (high-performance liquid chromatography) analysis of acacetin conversion.
# The samples were stored in a −80° C. freezer until HPLC analysis for acacetin content. Except for the double blanks, pentamethylquercetin (500 ng/mL) was used for concentration calibration. The analysis was carried out on a Waters HPLC system (Milford, Mass.) equipped with an Alltech column (C18, 250 mm×4.6 mm i.d., 5 μm, Grace, Deerfield, Ill.). The mobile phase consisted of 45% acetonitrile in 1% of acetic acid. The UV detector was set at a single wavelength of 260 nm. The lower limit of quantification was 50 ng/mL.
# The in vivo conversion of water-soluble prodrug A was determined in anesthetized SD rats. Prodrug A (20 mg/kg i.v.) was infused for 30-60 min, and levels of the parent compound acacetin in blood plasma were determined by HPLC analysis.
# IKACh = target: T2, IKACh (Rattus norvegicus, UniProt P48548+P63251); assay: Whole-cell patch-clamp, IKACh activated by 5 μM carbachol in rat atrial myocytes; assay type: cell-based; settings: 30 μM, representative cells
# T2 construct: from tissue; host or cells: freshly isolated left atrial myocytes of SD rats
# T2 sequence (P63251 1-501): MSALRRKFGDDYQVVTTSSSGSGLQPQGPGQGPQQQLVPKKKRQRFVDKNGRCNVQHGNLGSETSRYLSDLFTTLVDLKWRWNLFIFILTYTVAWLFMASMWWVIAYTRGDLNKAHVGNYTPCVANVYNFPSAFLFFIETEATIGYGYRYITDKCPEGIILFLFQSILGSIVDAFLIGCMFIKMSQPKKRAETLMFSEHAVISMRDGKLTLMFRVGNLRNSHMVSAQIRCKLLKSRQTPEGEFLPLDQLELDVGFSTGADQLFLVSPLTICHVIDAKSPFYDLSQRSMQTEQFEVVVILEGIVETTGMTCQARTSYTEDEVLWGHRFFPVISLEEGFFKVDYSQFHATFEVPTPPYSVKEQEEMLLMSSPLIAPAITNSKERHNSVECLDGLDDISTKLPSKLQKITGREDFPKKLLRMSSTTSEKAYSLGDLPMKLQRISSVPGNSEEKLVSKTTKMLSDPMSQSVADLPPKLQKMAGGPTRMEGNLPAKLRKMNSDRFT
# T2 sequence (P48548 1-419): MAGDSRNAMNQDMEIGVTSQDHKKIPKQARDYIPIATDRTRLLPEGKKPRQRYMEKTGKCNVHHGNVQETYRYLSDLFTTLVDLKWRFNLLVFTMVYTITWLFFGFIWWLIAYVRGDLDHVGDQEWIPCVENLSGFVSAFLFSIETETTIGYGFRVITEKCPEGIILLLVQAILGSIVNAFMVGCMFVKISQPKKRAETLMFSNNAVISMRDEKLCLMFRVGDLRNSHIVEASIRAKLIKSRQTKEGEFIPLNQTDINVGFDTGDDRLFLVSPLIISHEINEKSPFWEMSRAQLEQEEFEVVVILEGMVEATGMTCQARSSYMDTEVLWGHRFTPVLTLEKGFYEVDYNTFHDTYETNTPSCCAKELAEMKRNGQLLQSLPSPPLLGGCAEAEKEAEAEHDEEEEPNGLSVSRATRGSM
# Procedure: Rat atrial myocytes were prepared with the procedure described previously (Li et al., 2002) with a slight modification. Briefly, After SD rats (250-300 g) were anesthetized with pentobarbital (30 mg/kg i.p.), the heart was mounted to a Langendorff heart perfusion apparatus via the aorta and perfused with HEPES-buffered Tyrode's solution at 37° C. gassed with 100% 02 for 5 min. The heart was perfused with Ca^2+-free Tyrode's solution for 5-8 min, followed by Ca^2+-free Tyrode's solution containing 0.06% collagenase (Type II, Worthington Biochemical, Lakewood, N.J., USA) and 0.1% bovine serum albumin (Sigma). When the heart became softened the left atrium was excised and placed in a high-K storage medium at room temperature for 2 h, and then used for electrophysiological recording (Li et al., 2002).
# as §1, with “C.). […]” for “C.).”
# T1 sequence (P22460 whole entry): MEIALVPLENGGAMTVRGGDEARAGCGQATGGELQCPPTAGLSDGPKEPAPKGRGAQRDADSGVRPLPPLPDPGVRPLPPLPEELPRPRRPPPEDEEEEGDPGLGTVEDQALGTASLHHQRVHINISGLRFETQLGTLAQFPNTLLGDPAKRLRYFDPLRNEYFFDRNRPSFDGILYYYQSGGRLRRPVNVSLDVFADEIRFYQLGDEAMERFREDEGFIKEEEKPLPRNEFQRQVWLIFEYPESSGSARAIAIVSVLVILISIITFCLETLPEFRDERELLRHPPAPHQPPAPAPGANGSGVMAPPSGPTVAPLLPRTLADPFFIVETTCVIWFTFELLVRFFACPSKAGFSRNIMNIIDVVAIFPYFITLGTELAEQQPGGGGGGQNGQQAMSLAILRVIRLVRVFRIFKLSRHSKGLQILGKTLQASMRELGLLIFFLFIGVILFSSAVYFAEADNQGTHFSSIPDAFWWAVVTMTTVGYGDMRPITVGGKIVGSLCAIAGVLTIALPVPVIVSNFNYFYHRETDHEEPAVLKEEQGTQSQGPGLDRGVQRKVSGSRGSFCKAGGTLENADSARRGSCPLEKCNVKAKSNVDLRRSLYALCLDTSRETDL
smiles,measurement,setting,value
COc1ccc(-c2cc(=O)c3c(O)cc(OP(=O)(O)O)cc3o2)cc1 [Prodrug A],effect on Kv1.5 current,[1],no inhibitory effect
same,concentrations of acacetin at different time-points after prodrug administration,[2],can reach therapeutic concentrations
same,effect on IKACh,IKACh,no inhibitory effect
